The values below are quoted from earlier work in US20220127231A1, “PROCESS FOR THE PREPARTION OF AMIFAMPRIDINE PHOSPHATE” (SHILPA MEDICARE LTD, priority 2020, published 2022).

Structures are written as SMILES.

The conditions of data set [1]: 1% solution in water at 25° C.

Regarding `Nc1ccncc1N` [Amifampridine phosphate], the “solubility in dimethyl sulfoxide” value (dimethyl sulfoxide) is recorded as “slightly soluble”. Besides, the solubility in dimethylformamide result (dimethylformamide) is on record as “very slightly soluble”. The solubility in ethanol result (ethanol) was “very slightly soluble”. Further, under “glacial acetic acid”, the “solubility in glacial acetic acid” value is “slightly soluble”. Also, the solubility in methanol result (methanol) is “slightly soluble”. For the setting “water”, the solubility in water result is “practically soluble”. The “pH of 1% solution in water” value in data set [1] is recorded as 4.6±0.2.
